Here are results for 29 molecules from patent US10150771B2, “Triazolopyrazinones as PDE1 inhibitors” (H. Lundbeck A/S, priority 2014, dated 2018).

Type in all cases: biochemical
For one experiment, the target named is PDE1C (Homo sapiens, UniProt Q14123). The experiment in a line: PDE1 inhibition assay (SPA), PDE1C. Particulars: concentration required to reach 50% inhibition of the enzyme; 15 nM tritium labelled cAMP; read-out: PDE1C inhibition (nM or %): IC50. Here is the method:
(§1) PDE1 Inhibition Assay PDE1A, PDE1B and PDE1C assays were performed as follows: the assays were performed in 60 μL samples containing a fixed amount of the PDE1 enzym1 (sufficient to convert 20-25% of the cyclic nucleotide substrate), a buffer (50 mM HEPES pH 7.6; 10 mM MgCl2; 0.02% Tween20), 0.1 mg/ml BSA, 15 nM tritium labelled cAMP and varying amounts of inhibitors. Reactions were initiated by addition of the cyclic nucleotide substrate, and reactions were allowed to proceed for 1 h at room temperature before being terminated through mixing with 20 μL (0.2 mg) yttrium silicate SPA beads (PerkinElmer). The beads were allowed to settle for 1 h in the dark before the plates were counted in a Wallac 1450 Microbeta counter. The measured signals were converted to activity relative to an uninhibited control (100%) and IC50 values were calculated using XIFit (model 205, IDBS).

Another experiment deals with PDE1B (Homo sapiens, UniProt Q01064). The experiment in a line: PDE1 inhibition assay (SPA), PDE1B. Particulars: for IC50: concentration required to reach 50% inhibition of the enzyme, 15 nM tritium labelled cAMP, read-out: PDE1B inhibition (nM or %): IC50. Here is the method: as §1
PDE1B, sequence (Q01064 whole entry): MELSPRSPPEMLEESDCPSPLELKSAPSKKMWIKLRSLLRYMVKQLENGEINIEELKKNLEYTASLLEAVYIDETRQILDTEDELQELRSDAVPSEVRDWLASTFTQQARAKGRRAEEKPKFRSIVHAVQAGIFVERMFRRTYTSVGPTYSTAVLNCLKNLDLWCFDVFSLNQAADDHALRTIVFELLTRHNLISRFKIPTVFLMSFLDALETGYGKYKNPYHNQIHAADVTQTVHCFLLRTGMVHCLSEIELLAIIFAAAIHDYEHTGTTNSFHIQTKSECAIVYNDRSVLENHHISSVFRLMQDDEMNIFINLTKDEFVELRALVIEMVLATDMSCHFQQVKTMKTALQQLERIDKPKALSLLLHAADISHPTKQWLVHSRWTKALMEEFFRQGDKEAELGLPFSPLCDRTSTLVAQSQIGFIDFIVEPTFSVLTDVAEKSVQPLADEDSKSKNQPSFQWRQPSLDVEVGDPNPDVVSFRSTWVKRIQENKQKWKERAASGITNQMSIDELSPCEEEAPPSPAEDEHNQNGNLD
The target in another experiment is PDE1A (Homo sapiens, UniProt P54750). Description: PDE1 inhibition assay (SPA), PDE1A. Particulars: for IC50: concentration required to reach 50% inhibition of the enzyme, 15 nM tritium labelled cAMP, read-out: PDE1A inhibition (nM or %): IC50; for inhibition at 10 µM: 1 h, % inhibition of the enzyme at a concentration of 10 micro molar of the compound, read-out: PDE1A inhibition (nM or %): % inhib. How it is done: as §1
PDE1A, sequence (P54750 whole entry): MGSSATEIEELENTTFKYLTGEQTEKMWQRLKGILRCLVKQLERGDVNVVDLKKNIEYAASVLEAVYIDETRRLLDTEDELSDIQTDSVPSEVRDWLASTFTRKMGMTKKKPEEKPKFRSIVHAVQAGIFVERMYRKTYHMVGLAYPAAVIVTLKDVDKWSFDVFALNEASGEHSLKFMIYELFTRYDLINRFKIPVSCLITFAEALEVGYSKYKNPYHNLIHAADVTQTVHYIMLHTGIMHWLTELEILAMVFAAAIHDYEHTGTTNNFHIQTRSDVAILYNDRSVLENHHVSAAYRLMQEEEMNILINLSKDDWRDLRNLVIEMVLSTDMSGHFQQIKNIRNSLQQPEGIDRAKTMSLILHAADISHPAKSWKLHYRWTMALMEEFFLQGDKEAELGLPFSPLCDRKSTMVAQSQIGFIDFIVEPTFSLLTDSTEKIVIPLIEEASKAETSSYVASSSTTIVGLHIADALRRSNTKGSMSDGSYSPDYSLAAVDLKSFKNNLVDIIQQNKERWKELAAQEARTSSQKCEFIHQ

PDE1C, sequence (Q14123 whole entry): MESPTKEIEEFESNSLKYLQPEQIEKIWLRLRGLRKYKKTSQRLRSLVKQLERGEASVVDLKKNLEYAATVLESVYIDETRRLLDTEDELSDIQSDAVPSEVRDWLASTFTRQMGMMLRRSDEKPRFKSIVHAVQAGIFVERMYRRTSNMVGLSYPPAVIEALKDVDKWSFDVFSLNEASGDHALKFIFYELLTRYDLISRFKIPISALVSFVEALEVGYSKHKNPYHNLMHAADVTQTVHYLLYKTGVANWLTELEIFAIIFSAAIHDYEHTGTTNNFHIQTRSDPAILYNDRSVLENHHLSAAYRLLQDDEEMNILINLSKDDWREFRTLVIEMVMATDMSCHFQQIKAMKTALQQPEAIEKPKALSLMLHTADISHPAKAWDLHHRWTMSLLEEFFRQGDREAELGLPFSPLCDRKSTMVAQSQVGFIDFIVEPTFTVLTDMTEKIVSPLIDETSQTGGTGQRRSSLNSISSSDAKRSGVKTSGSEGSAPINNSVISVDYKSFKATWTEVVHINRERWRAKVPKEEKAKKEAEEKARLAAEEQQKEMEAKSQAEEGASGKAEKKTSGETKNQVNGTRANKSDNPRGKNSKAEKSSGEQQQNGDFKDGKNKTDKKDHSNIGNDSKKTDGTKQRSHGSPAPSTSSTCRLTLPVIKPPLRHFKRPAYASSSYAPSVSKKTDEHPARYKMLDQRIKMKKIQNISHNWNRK

On to `O=c1c2nnc(C3CCOCC3)n2cc(Cc2cccc(F)c2)n1Cc1cccc(F)c1` [6,7-bis(3-fluorobenzyl)-3-(tetrahydro-2H-pyran-4-yl)-[1,2,4]triazolo[4,3-a]pyrazin-8(7H)-one], for which the half-maximal inhibitory concentration (IC50) on PDE1C came out at 8 nM; on PDE1B, 40 nM; at PDE1A, 47 nM.
As to `O=c1c2nnc(C3CCOCC3)n2cc(Cc2ccc(-c3ccccc3)cc2)n1CC1CCCCC1` [6-([1,1′-biphenyl]-4-ylmethyl)-7-(cyclohexylmethyl)-3-(tetrahydro-2H-pyran-4-yl)-[1,2,4]triazolo[4,3-a]pyrazin-8(7H)-one], the IC50 is 0.1 nM at PDE1C, 0.17 nM on PDE1B and 0.33 nM at PDE1A.
In the case of `O=c1c2nnc(C3CCOCC3)n2cc(Cc2ccccc2)n1Cc1cccc(F)c1` [6-benzyl-7-(3-fluorobenzyl)-3-(tetrahydro-2H-pyran-4-yl)-[1,2,4]triazolo[4,3-a]pyrazin-8(7H)-one], the figures for the IC50 at PDE1C, on PDE1B and on PDE1A were 5 nM, 18 nM and 32 nM, respectively.
The matching figures for `O=c1c2nnc(C3CCOCC3)n2cc(Cc2ccccc2)n1Cc1ccc(F)cc1` [6-benzyl-7-(4-fluorobenzyl)-3-(tetrahydro-2H-pyran-4-yl)-[1,2,4]triazolo[4,3-a]pyrazin-8(7H)-one]: 6 nM, 12 nM and 15 nM.
For `O=c1c2nnc(C3CCOCC3)n2cc(Cc2ccccc2)n1CC1CCCCCC1` [6-benzyl-7-(cycloheptylmethyl)-3-(tetrahydro-2H-pyran-4-yl)-[1,2,4]triazolo[4,3-a]pyrazin-8(7H)-one] the same measures were 2 nM, 4 nM and 1 nM.
The matching figures for `O=c1c2nnc(C3CCOCC3)n2cc(Cc2ccccc2)n1CC1CCCCC1` [6-benzyl-7-(cyclohexylmethyl)-3-(tetrahydro-2H-pyran-4-yl)-[1,2,4]triazolo[4,3-a]pyrazin-8(7H)-one]: 4 nM, 11 nM and 11 nM.
Turning to `O=c1c2nnc(C3CCOCC3)n2cc(Cc2ccccc2)n1CC1CCCC1` [6-benzyl-7-(cyclopentylmethyl)-3-(tetrahydro-2H-pyran-4-yl)-[1,2,4]triazolo[4,3-a]pyrazin-8(7H)-one], the figures for the half-maximal inhibitory concentration (IC50) on PDE1C, on PDE1B and at PDE1A were 5 nM, 46 nM and 65 nM, respectively.
For `Cn1c(Cc2ccccc2)cn2c(C3CCOCC3)nnc2c1=O` [6-benzyl-7-methyl-3-(tetrahydro-2H-pyran-4-yl)-[1,2,4]triazolo[4,3-a]pyrazin-8(7H)-one] the same measures were 2800 nM, 1600 nM and 2000 nM.
Take `O=c1c2nnc(C3CCOCC3)n2cc(Br)n1Cc1cccc(F)c1` [6-bromo-7-(3-fluorobenzyl)-3-(tetrahydro-2H-pyran-4-yl)-[1,2,4]triazolo[4,3-a]pyrazin-8(7H)-one]: the results for the IC50 at PDE1C, at PDE1B and at PDE1A were 24 nM, 150 nM and 114 nM, respectively.
For `CCCc1nnc2c(=O)n(Cc3cccc(F)c3)c(Br)cn12` [6-bromo-7-(3-fluorobenzyl)-3-propyl-[1,2,4]triazolo[4,3-a]pyrazin-8(7H)-one], the IC50 came to 20 nM at PDE1C, 99 nM on PDE1B and 63 nM on PDE1A.
For `O=c1c2nnc(C3CCOCC3)n2cc(Br)n1CC1CCCCCC1` [6-bromo-7-(cycloheptylmethyl)-3-(tetrahydro-2H-pyran-4-yl)-[1,2,4]triazolo[4,3-a]pyrazin-8(7H)-one] the same measures were 3 nM, 4 nM and 13 nM.
Regarding `O=c1c2nnc(C3CCOCC3)n2cc(Br)n1CC1CCCCC1` [6-bromo-7-(cyclohexylmethyl)-3-(tetrahydro-2H-pyran-4-yl)-[1,2,4]triazolo[4,3-a]pyrazin-8(7H)-one], the half-maximal inhibitory concentration (IC50) at PDE1C was determined as 3 nM; at PDE1B, 17 nM; at PDE1A, 12 nM.
For `O=c1c2nnc(C3CCOCC3)n2cc(Br)n1CC1CCCC1` [6-bromo-7-(cyclopentylmethyl)-3-(tetrahydro-2H-pyran-4-yl)-[1,2,4]triazolo[4,3-a]pyrazin-8(7H)-one] the same measures were 6 nM, 140 nM and 164 nM.
With `CCCc1nnc2c(=O)n(Cc3cccc(F)c3)c(CC)cn12` [6-ethyl-7-(3-fluorobenzyl)-3-propyl-[1,2,4]triazolo[4,3-a]pyrazin-8(7H)-one], the IC50 was 50 nM at PDE1C, 180 nM at PDE1B and 117 nM on PDE1A.
For `CCCc1nnc2c(=O)n(Cc3ccccc3Cl)ccn12` [7-(2-Chlorobenzyl)-3-propyl-[1,2,4]triazolo[4,3-a]pyrazin-8(7H)-one] the same measures were 430 nM, 2500 nM and 2000 nM.
The matching figures for `CCCc1nnc2c(=O)n(Cc3ccccc3F)ccn12` [7-(2-Fluorobenzyl)-3-propyl-[1,2,4]triazolo[4,3-a]pyrazin-8(7H)-one]: 130 nM, 1000 nM and 860 nM.
As to `CCCc1nnc2c(=O)n(Cc3ccccc3C)ccn12` [7-(2-Methylbenzyl)-3-propyl-[1,2,4]triazolo[4,3-a]pyrazin-8(7H)-one], the half-inhibitory concentration (IC50) at PDE1C amounted to 2400 nM. Moreover, the inhibition at 10 µM amounted to 42% at PDE1B (1 h, % inhibition of the enzyme at a concentration of 10 micro molar of the compound, read-out: PDE1B inhibition (nM or %): % inhib) and 53% at PDE1A.
With `CCCc1nnc2c(=O)n(Cc3cccc(Cl)c3)ccn12` [7-(3-Chlorobenzyl)-3-propyl-[1,2,4]triazolo[4,3-a]pyrazin-8(7H)-one], the figures for the IC50 on PDE1C, at PDE1B and at PDE1A were 160 nM, 1300 nM and 1400 nM, respectively.
For the molecule `O=c1c2nnc(CC(F)(F)F)n2ccn1Cc1cccc(F)c1` [7-(3-Fluorobenzyl)-3-(2,2,2-trifluoroethyl)-[1,2,4]triazolo[4,3-a]pyrazin-8(7H)-one], the concentration for half-maximal inhibition (IC50) came to 380 nM at PDE1C, 1400 nM on PDE1B and 2000 nM at PDE1A.
On to `O=c1c2nnc(CCF)n2ccn1Cc1cccc(F)c1` [7-(3-Fluorobenzyl)-3-(2-fluoroethyl)-[1,2,4]triazolo[4,3-a]pyrazin-8(7H)-one], for which the IC50 on PDE1C is 620 nM; at PDE1B, 3000 nM; on PDE1A, 2900 nM.
As for `O=c1c2nnc([C@H]3CC[C@H](O)CC3)n2ccn1Cc1cccc(F)c1` [7-(3-Fluorobenzyl)-3-((1r,4r)-4-hydroxycyclohexyl)-[1,2,4]triazolo[4,3-a]pyrazin-8(7H)-one], the 50% inhibitory concentration (IC50) stood at 200 nM at PDE1C, 630 nM at PDE1B and 1000 nM at PDE1A.
The matching figures for `O=c1c2nnc([C@H]3CC[C@@H](O)CC3)n2ccn1Cc1cccc(F)c1` [7-(3-Fluorobenzyl)-3-((1s,4s)-4-hydroxycyclohexyl)-[1,2,4]triazolo[4,3-a]pyrazin-8(7H)-one]: 350 nM, 1000 nM and 1800 nM.
For `O=c1c2nnc(CC3CCOC3)n2ccn1Cc1cccc(F)c1` (stereo not drawn) [7-(3-Fluorobenzyl)-3-((tetrahydrofuran-3-yl)methyl)-[1,2,4]triazolo[4,3-a]pyrazin-8(7H)-one] the same measures were 420 nM, 1900 nM and 1200 nM.
As to `CCCCC(CC)c1nnc2c(=O)n(Cc3cccc(F)c3)ccn12` (stereo not drawn) [7-(3-Fluorobenzyl)-3-(heptan-3-yl)-[1,2,4]triazolo[4,3-a]pyrazin-8(7H)-one], the figures for the 50% inhibitory concentration (IC50) at PDE1C, on PDE1B and at PDE1A were 480 nM, 1600 nM and 3200 nM, respectively.
Regarding `O=c1c2nnc(C3COC3)n2ccn1Cc1cccc(F)c1` [7-(3-Fluorobenzyl)-3-(oxetan-3-yl)-[1,2,4]triazolo[4,3-a]pyrazin-8(7H)-one], the results for the IC50 at PDE1C and at PDE1B were 1700 nM and 7200 nM, respectively. Further, the inhibition at 10 µM on PDE1A was found to be 67%.
In the case of `O=c1c2nnc(C3CCOCC3)n2ccn1Cc1cccc(F)c1` [7-(3-Fluorobenzyl)-3-(tetrahydro-2H-pyran-4-yl)-[1,2,4]triazolo[4,3-a]pyrazin-8(7H)-one], the IC50 at PDE1C stood at 140 nM; at PDE1B it was 680 nM; at PDE1A, 730 nM.
`CCCc1nnc2c(=O)n(Cc3cccc(F)c3)ccn12` [7-(3-Fluorobenzyl)-3-propyl-[1,2,4]triazolo[4,3-a]pyrazin-8(7H)-one]: the figures for the IC50 on PDE1C, at PDE1B and at PDE1A were 190 nM, 1200 nM and 1100 nM, respectively.
The matching figures for `CCCc1nnc2c(=O)n(Cc3cccc(C)c3)ccn12` [7-(3-Methylbenzyl)-3-propyl-[1,2,4]triazolo[4,3-a]pyrazin-8(7H)-one]: 170 nM, 1600 nM and 1500 nM.
For `CCCc1nnc2c(=O)n(Cc3cccc(F)c3)cc(C)n12` [7-(3-fluorobenzyl)-5-methyl-3-propyl-[1,2,4]triazolo[4,3-a]pyrazin-8(7H)-one] the same measures were 260 nM, 1000 nM and 1360 nM.
